Measured values: patent publication US9663528B2, “Substituted 1,2,3,4,6,8,12,12a-octahydro-1,4-methanodipyrido[1,2-a:1',2'-d]pyrazines and methods for treating viral infections” (priority 2012, dated 2017)
Where two headings read alike, the source gives them in different places. Values belong to the compound of their own block, whether it stands above or below them.

Legend:
in vitro = conditions: human
Description: For the antiviral assay utilizing MT4 cells, 0.4 μL of […] test concentration of 3-fold serially diluted compound in DMSO was added to 40 μL of cell growth medium (RPMI 1640, 10% FBS, 1% penicilline/Streptomycine, 1% L-Glutamine, 1% HEPES) in each well of 384-well assay plates (10 concentrations) in quidruplicate.
1 mL aliquots of 2×10^6 MT4 cells are pre-infected for 1 and 3 hours respectively at 37° C. with 25 μL (MT4) or of either cell growth medium (mock-infected) or a fresh 1:250 dilution of an HIV-IIIb concentrated ABI stock (0.004 m.o.i. for MT4 cells). Infected and uninfected cells are diluted in cell growth medium and 35 μL of 2000 (for MT4) cells is added to each well of the assay plates.
Assay plates were then incubated in a 37° C. incubator. After 5 days of incubation, 25 μL of 2× concentrated CellTiter-Glo™ Reagent (catalog #G7573, Promega Biosciences, Inc., Madison, Wis.) was added to each well of the assay plate. Cell lysis was carried out by incubating at room temperature for 2-3 minutes, and then chemiluminescence was read using the Envision reader (PerkinElmer).

PXR = PXR (Homo sapiens (Human), UniProt O75469); experiment: Human PXR activation assay (luciferase reporter gene assay, DPX2 cells); type: cell-based; conditions: human
Description: A stably transformed tumor cell line (DPX2) was plated on 96-well microtiter plates. DPX2 cells harbor the human PXR gene (NR112) and a luciferase reporter gene linked to two promoters identified in the human CYP3A4 gene, namely XREM and PXRE. […] The number of viable cells was determined and the reporter gene activity was assessed. Positive control: […]

[1] = 15 μM, relative to maximum fold induction by 10 or 20 μM rifampicin, DPX2 cells, 24 hours, read-out: % Emax at 15 μM
[2] = MT-4 cells, mock-infected, CC50 nM in MT-4, MT-4 cells, 5 days incubation

PXR, sequence (O75469 whole entry): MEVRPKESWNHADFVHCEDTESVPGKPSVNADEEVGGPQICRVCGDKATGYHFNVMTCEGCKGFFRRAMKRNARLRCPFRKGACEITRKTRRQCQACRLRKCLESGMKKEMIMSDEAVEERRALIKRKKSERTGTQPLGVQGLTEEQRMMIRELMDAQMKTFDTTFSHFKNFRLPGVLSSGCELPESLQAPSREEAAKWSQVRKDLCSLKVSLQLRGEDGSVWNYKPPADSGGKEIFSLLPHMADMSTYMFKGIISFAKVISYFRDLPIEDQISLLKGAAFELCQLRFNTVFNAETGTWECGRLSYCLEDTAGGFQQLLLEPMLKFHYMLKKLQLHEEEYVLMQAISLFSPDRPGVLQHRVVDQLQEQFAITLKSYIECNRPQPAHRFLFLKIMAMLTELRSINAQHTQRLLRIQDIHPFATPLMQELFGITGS

SMILES: O=C(NCc1cccc(Cl)c1F)c1cn2c(c(O)c1=O)C(=O)N1[C@H]3CC[C@H](C3)O[C@@H]1C2 [Compound 88, (2R,5S,13aR)-N-(3-chloro-2-fluorobenzyl)-8-hydroxy-7,9-dioxo-2,3,4,5,7,9,13,13a-octahydro-2,5-methanopyrido[1′,2′:4,5]pyrazino[2,1-b][1,3]oxazepine-10-carboxamide]
CC50 at 5 days (in vitro; CC50 nM in MT-4): 3230 nM | Emax at 24 h, 15 µM (PXR): 27%

SMILES: O=C(NCc1cc(F)c(F)cc1F)c1cn2c(c(O)c1=O)C(=O)N1[C@H]3CC[C@H](C3)[C@@H]1C2 [Compound 79, (1R,4S,12aR)-7-hydroxy-6,8-dioxo-N-(2,4,5-trifluorobenzyl)-1,2,3,4,6,8,12,12a-octahydro-1,4-methanodipyrido[1,2-a:1′,2′-d]pyrazine-9-carboxamide]
CC50 at 5 days (in vitro; CC50 nM in MT-4): 12100 nM | Emax at 24 h, 15 µM (PXR): 0%

SMILES: O=C(NCc1cccc(Cl)c1F)c1cn2c(c(O)c1=O)C(=O)N1[C@H]3CC[C@H](C3)[C@@H]1C2 [Compound 90, (1R,4S,12aR)-N-(3-chloro-2-fluorobenzyl)-7-hydroxy-6,8-dioxo-1,2,3,4,6,8,12,12a-octahydro-1,4-methanodipyrido[1,2-a:1′,2′-d]pyrazine-9-carboxamide]
CC50 at 5 days (in vitro; CC50 nM in MT-4): 8090 nM | Emax at 24 h, 15 µM (PXR): 11%

SMILES: O=C(NCc1ccc(F)cc1)c1cn2c(c(O)c1=O)C(=O)N1[C@@H]3CC[C@@H](C3)O[C@H]1C2 [Compound 15, (2S,5R,13aS)-N-(4-fluorobenzyl)-8-hydroxy-7,9-dioxo-2,3,4,5,7,9,13,13a-octahydro-2,5-methanopyrido[1′,2′:4,5]pyrazino[2,1-b][1,3]oxazepine-10-carboxamide]
CC50 at 5 days (in vitro; CC50 nM in MT-4): 16300 nM | Emax at 24 h, 15 µM (PXR): 20%

SMILES: O=C(NCc1ccc(F)cc1F)c1cn2c(c(O)c1=O)C(=O)N1C(C2)[C@H]2CC[C@@H]1C2 (stereo in doubt) [Compound 38, (1S,4R,12aR)-N-(2,4-difluorobenzyl)-7-hydroxy-6,8-dioxo-1,2,3,4,6,8,12,12a-octahydro-1,4-methanodipyrido[1,2-a:1′,2′-d]pyrazine-9-carboxamide]
CC50 at 5 days (in vitro; CC50 nM in MT-4): 10200 nM | Emax at 24 h, 15 µM (PXR; [1]): 7%

SMILES: O=C(NCc1c(F)cc(F)cc1F)c1cn2c(c(O)c1=O)C(=O)N1[C@@H]3C[C@@H]([C@H](F)C3)[C@@H]1C2 [Compound 59, (1R,2R,4R,12aR)-2-fluoro-7-hydroxy-6,8-dioxo-N-(2,4,6-trifluorobenzyl)-1,2,3,4,6,8,12,12a-octahydro-1,4-methanodipyrido[1,2-a:1′,2′-d]pyrazine-9-carboxamide]
CC50 at 5 days (in vitro; CC50 nM in MT-4): 22200 nM | Emax at 24 h, 15 µM (PXR): 4%

SMILES: O=C(NCc1ccc(F)c(Cl)c1F)c1cn2c(c(O)c1=O)C(=O)N1[C@H]3CC[C@H](C3)[C@H]1C2 [Compound 61, (1R,4S,12aS)-N-(3-chloro-2,4-difluorobenzyl)-7-hydroxy-6,8-dioxo-1,2,3,4,6,8,12,12a-octahydro-1,4-methanodipyrido[1,2-a:1′,2′-d]pyrazine-9-carboxamide]
CC50 at 5 days (in vitro; CC50 nM in MT-4): 25900 nM | Emax at 24 h, 15 µM (PXR): 1%

SMILES: C[C@H]1C[C@@H]2C[C@H]1N1C(=O)c3c(O)c(=O)c(C(=O)NCc4c(F)cc(F)cc4F)cn3C[C@H]21 [Compound 86, (1R,3S,4R,12aS)-7-hydroxy-3-methyl-6,8-dioxo-N-(2,4,6-trifluorobenzyl)-1,2,3,4,6,8,12,12a-octahydro-1,4-methanodipyrido[1,2-a:1′,2′-d]pyrazine-9-carboxamide]
CC50 at 5 days (in vitro; CC50 nM in MT-4): 22400 nM | Emax at 24 h, 15 µM (PXR): 30%

SMILES: C[C@@H](NC(=O)c1cn2c(c(O)c1=O)C(=O)N1[C@H]3CC[C@H](C3)[C@@H]1C2)c1ccc(F)cc1F [Compound 43, (12aR)-N—((R)-1-(2,4-difluorophenyl)ethyl)-7-hydroxy-6,8-dioxo-1,2,3,4,6,8,12,12a-octahydro-1,4-methanodipyrido[1,2-a:1′,2′-d]pyrazine-9-carboxamide]
CC50 at 5 days (in vitro; CC50 nM in MT-4): 10300 nM | Emax at 24 h, 15 µM (PXR): 18%

SMILES: O=C(NCc1ccc(Cl)cc1F)c1cn2c(c(O)c1=O)C(=O)N1[C@@H]3CC[C@@H](C3)O[C@H]1C2 [Compound 17, (2S,5R,13aS)-N-(4-chloro-2-fluorobenzyl)-8-hydroxy-7,9-dioxo-2,3,4,5,7,9,13,13a-octahydro-2,5-methanopyrido[1′,2′:4,5]pyrazino[2,1-b][1,3]oxazepine-10-carboxamide]
CC50 at 5 days (in vitro; CC50 nM in MT-4): 6610 nM | Emax at 24 h, 15 µM (PXR): 7%

SMILES: O=C(NC1(c2ccc(F)cc2F)CCC1)c1cn2c(c(O)c1=O)C(=O)N1C(C2)O[C@H]2CC[C@@H]1C2 (stereo partly drawn) [Compound 32, (2S,5R)-N-(1-(2,4-difluorophenyl)cyclobutyl)-8-hydroxy-7,9-dioxo-2,3,4,5,7,9,13,13a-octahydro-2,5-methanopyrido[1′,2′:4,5]pyrazino[2,1-b][1,3]oxazepine-10-carboxamide]
CC50 at 5 days (in vitro; CC50 nM in MT-4): 4680 nM | Emax at 24 h, 15 µM (PXR): 14%

SMILES: O=C(N[C@@H](c1ccc(F)cc1F)C(F)(F)F)c1cn2c(c(O)c1=O)C(=O)N1C(C2)O[C@@H]2CC[C@H]1C2 (stereo partly drawn) [Compound 54, (2R,5S)-N—((S)-1-(2,4-difluorophenyl)-2,2,2-trifluoroethyl)-8-hydroxy-7,9-dioxo-2,3,4,5,7,9,13,13a-octahydro-2,5-methanopyrido[1′,2′:4,5]pyrazino[2,1-b][1,3]oxazepine-10-carboxamide]
CC50 at 5 days (in vitro; CC50 nM in MT-4): 3240 nM | Emax at 24 h, 15 µM (PXR): 2%

SMILES: O=C(NCc1ccc(F)c(Cl)c1F)c1cn2c(c(O)c1=O)C(=O)N1[C@H]3CC[C@H](C3)[C@@H]1C2 [Compound 69, (1R,4S,12aR)-N-(3-chloro-2,4-difluorobenzyl)-7-hydroxy-6,8-dioxo-1,2,3,4,6,8,12,12a-octahydro-1,4-methanodipyrido[1,2-a:1′,2′-d]pyrazine-9-carboxamide]
CC50 at 5 days (in vitro; CC50 nM in MT-4): 4770 nM | Emax at 24 h, 15 µM (PXR): 5%

SMILES: Cc1cccc(CNC(=O)c2cn3c(c(O)c2=O)C(=O)N2[C@H]4CC[C@H](C4)[C@@H]2C3)c1F [Compound 70, (1R,4S,12aR)-N-(2-fluoro-3-methylbenzyl)-7-hydroxy-6,8-dioxo-1,2,3,4,6,8,12,12a-octahydro-1,4-methanodipyrido[1,2-a:1′,2′-d]pyrazine-9-carboxamide]
CC50 at 5 days (in vitro; CC50 nM in MT-4): 8410 nM | Emax at 24 h, 15 µM (PXR): 10%

SMILES: O=C(NCc1ccc(Cl)cc1F)c1cn2c(c(O)c1=O)C(=O)N1[C@H]3CC[C@H](C3)[C@@H]1C2 [Compound 92, (1R,4S,12aR)-N-(4-chloro-2-fluorobenzyl)-7-hydroxy-6,8-dioxo-1,2,3,4,6,8,12,12a-octahydro-1,4-methanodipyrido[1,2-a:1′,2′-d]pyrazine-9-carboxamide]
CC50 at 5 days (in vitro; CC50 nM in MT-4): 4550 nM | Emax at 24 h, 15 µM (PXR): 3%

SMILES: C[C@H]1CO[C@@H]2Cn3cc(C(=O)NC4(c5ccc(F)cc5F)CC4)c(=O)c(O)c3C(=O)N12 [Compound 37, (3S,11aR)-N-(1-(2,4-difluorophenyl)cyclopropyl)-6-hydroxy-3-methyl-5,7-dioxo-2,3,5,7,11,11a-hexahydrooxazolo[3,2-a]pyrido[1,2-d]pyrazine-8-carboxamide]
CC50 at 5 days (in vitro; [2]): 19500 nM | Emax at 24 h, 15 µM (PXR; [1]): 2%

SMILES: O=C(NCc1c(F)cc(F)cc1F)c1cn2c(c(O)c1=O)C(=O)N1[C@@H]3C[C@H]([C@@H]1C2)C(F)(F)C3 [Compound 57, (1R,4R,12aR)-2,2-difluoro-7-hydroxy-6,8-dioxo-N-(2,4,6-trifluorobenzyl)-1,2,3,4,6,8,12,12a-octahydro-1,4-methanodipyrido[1,2-a:1′,2′-d]pyrazine-9-carboxamide]
CC50 at 5 days (in vitro; CC50 nM in MT-4): 11800 nM | Emax at 24 h, 15 µM (PXR): 3%

Emax at 24 h, 15 µM (PXR; [1]): 9%
SMILES: O=C(NCc1c(F)cc(F)cc1F)c1cn2c(c(O)c1=O)C(=O)N1[C@H]3C[C@H](C3)[C@@H]1C2 (single isomer, unassigned) [Compound 97]
CC50 at 5 days (in vitro; [2]): 17300 nM

SMILES: O=C(NC1(c2ccc(F)cc2F)CCCC1)c1cn2c(c(O)c1=O)C(=O)N1C(C2)O[C@H]2CC[C@@H]1C2 (stereo partly drawn) [Compound 33, (2S,5R)-N-(1-(2,4-difluorophenyl)cyclopentyl)-8-hydroxy-7,9-dioxo-2,3,4,5,7,9,13,13a-octahydro-2,5-methanopyrido[1′,2′:4,5]pyrazino[2,1-b][1,3]oxazepine-10-carboxamide]
CC50 at 5 days (in vitro; CC50 nM in MT-4): 3970 nM | Emax at 24 h, 15 µM (PXR): 17%

SMILES: O=C(NCc1c(F)ccc(Cl)c1F)c1cn2c(c(O)c1=O)C(=O)N1[C@H]3CC[C@H](C3)[C@@H]1C2 [Compound 73, (1R,4S,12aR)-N-(3-chloro-2,6-difluorobenzyl)-7-hydroxy-6,8-dioxo-1,2,3,4,6,8,12,12a-octahydro-1,4-methanodipyrido[1,2-a:1′,2′-d]pyrazine-9-carboxamide]
CC50 at 5 days (in vitro; CC50 nM in MT-4): 9190 nM | Emax at 24 h, 15 µM (PXR): 7%

SMILES: O=C(NCc1ccc(F)c(Cl)c1F)c1cn2c(c(O)c1=O)C(=O)N1[C@@H]3C[C@H]([C@@H]1C2)C(F)(F)C3 [Compound 58, (1R,4R,12aR)-N-(3-chloro-2,4-difluorobenzyl)-2,2-difluoro-7-hydroxy-6,8-dioxo-1,2,3,4,6,8,12,12a-octahydro-1,4-methanodipyrido[1,2-a:1′,2′-d]pyrazine-9-carboxamide]
CC50 at 5 days (in vitro; CC50 nM in MT-4): 7690 nM | Emax at 24 h, 15 µM (PXR): 1%
